{"source": "the NIST ThermoML archive (doi:10.1016/j.fluid.2006.03.014)", "conditions": "Liquid", "note": "Numbers after ± are expanded uncertainties.", "data": [{"compound": "CC(C)(N)CO", "note": "[2-amino-2-methylpropan-1-ol]", "values": [{"measurement": "vapor or sublimation pressure", "setting": "373.25 K", "result": "8 ± 0.4", "unit": "kPa"}, {"measurement": "vapor or sublimation pressure", "setting": "381.35 K", "result": "12 ± 0.4", "unit": "kPa"}, {"measurement": "vapor or sublimation pressure", "setting": "388.05 K", "result": "16 ± 0.4", "unit": "kPa"}, {"measurement": "vapor or sublimation pressure", "setting": "393.05 K", "result": "20 ± 0.4", "unit": "kPa"}, {"measurement": "vapor or sublimation pressure", "setting": "397.25 K", "result": "24 ± 0.4", "unit": "kPa"}, {"measurement": "vapor or sublimation pressure", "setting": "401.05 K", "result": "28 ± 0.5", "unit": "kPa"}, {"measurement": "vapor or sublimation pressure", "setting": "404.45 K", "result": "32 ± 0.5", "unit": "kPa"}, {"measurement": "vapor or sublimation pressure", "setting": "407.75 K", "result": "36 ± 0.5", "unit": "kPa"}, {"measurement": "vapor or sublimation pressure", "setting": "410.35 K", "result": "40 ± 0.5", "unit": "kPa"}, {"measurement": "vapor or sublimation pressure", "setting": "412.95 K", "result": "44 ± 0.5", "unit": "kPa"}, {"measurement": "vapor or sublimation pressure", "setting": "415.15 K", "result": "48 ± 0.6", "unit": "kPa"}, {"measurement": "vapor or sublimation pressure", "setting": "416.65 K", "result": "50.7 ± 0.6", "unit": "kPa"}, {"measurement": "vapor or sublimation pressure", "setting": "418.15 K", "result": "53.3 ± 0.6", "unit": "kPa"}, {"measurement": "vapor or sublimation pressure", "setting": "419.95 K", "result": "57.3 ± 0.6", "unit": "kPa"}, {"measurement": "vapor or sublimation pressure", "setting": "421.85 K", "result": "61.3 ± 0.6", "unit": "kPa"}, {"measurement": "vapor or sublimation pressure", "setting": "423.65 K", "result": "65.3 ± 0.6", "unit": "kPa"}, {"measurement": "vapor or sublimation pressure", "setting": "424.45 K", "result": "66.7 ± 0.6", "unit": "kPa"}, {"measurement": "vapor or sublimation pressure", "setting": "425.55 K", "result": "69.3 ± 0.7", "unit": "kPa"}, {"measurement": "vapor or sublimation pressure", "setting": "427.15 K", "result": "73.3 ± 0.7", "unit": "kPa"}, {"measurement": "vapor or sublimation pressure", "setting": "429.65 K", "result": "80 ± 0.7", "unit": "kPa"}, {"measurement": "vapor or sublimation pressure", "setting": "429.75 K", "result": "80 ± 0.7", "unit": "kPa"}, {"measurement": "vapor or sublimation pressure", "setting": "431.85 K", "result": "85.3 ± 0.7", "unit": "kPa"}, {"measurement": "vapor or sublimation pressure", "setting": "433.65 K", "result": "90.7 ± 0.8", "unit": "kPa"}, {"measurement": "vapor or sublimation pressure", "setting": "435.35 K", "result": "96 ± 0.8", "unit": "kPa"}, {"measurement": "vapor or sublimation pressure", "setting": "436.85 K", "result": "101.3 ± 0.9", "unit": "kPa"}]}]}
